For this data set the following is noted: Crystal; DTA.

Numbers after ± are expanded uncertainties.

With `C=C(C)[C@@H]1CC[C@]2(C(=O)O)CC[C@]3(C)[C@H](CC[C@@H]4[C@@]5(C)CC[C@H](O)C(C)(C)[C@@H]5CC[C@]43C)[C@@H]12` [betulinic acid], the Normal melting temperature is 315.30 ± 0.5 °C.

The values are drawn from the NIST ThermoML archive (doi:10.1021/je200531k).
